Measured values from patent publication EP4635969A1, “NOVEL GLUCOCORTICOID, METHOD FOR PREPARING SAME, AND USE THEREOF” (Tianjin Pharmaceutical Biotechnology Co., Ltd., priority 2022, dated 2024).

What was measured:
[1] = Stability in animal lung tissue homogenate, skin tissue homogenate and aqueous humor; format: in vitro ADME
[2] = test system: dry eye syndrome model New Zealand rabbits; assay: Dry eye syndrome experiment (benzalkonium chloride model): tear film break-up time; format: in vivo, male New Zealand White rabbits; details: for tear film break-up time: compared with the model group
Protocol: Positive control drug: Fluorometholone Eye Drops (specification: 5 mL/5 mg; Santen Pharmaceutical (CHINA) Co., Ltd.; Lot No.: 1FM6625) was used as the positive control drug and stored at room temperature protected from light until use.
Thirty male New Zealand White rabbits (conventional grade) were prepared. Six rabbits were randomly selected as the blank control group, and the remaining animals were administered 0.1% benzalkonium chloride to the left eye twice daily (morning and evening) , 10 µL/animal each time. On day 6 of modeling, tear secretion was measured using phenol red cotton threads to determine whether the model was successfully established. […] During the administration, all animals except the blank control group were administered 10 µL of 0.1% benzalkonium chloride to the left eye once daily to maintain dry eye symptoms..
• Test time: D3, D7, D15; • Test animals: All animals were tested before grouping; all enrolled surviving animals were tested after administration; • Test method: 1% Fluorescein sodium was dropped onto the inner side of the rabbit's lower eyelid, 10 µL/animal. The rabbit's eyes were closed and gently massaged to evenly distribute the fluorescein sodium on the eye surface. The rabbit's eyes were then sequentially placed under a slit lamp. The tear film break-up time was observed and recorded as the time from eye opening to the appearance of the first dark spot. If no dark spot appeared, the time was calculated as 60 seconds.
The normality and homogeneity of variance were tested by Levene's test. If there was no statistical significance (P > 0.05), one-way analysis of variance (ANOVA) was used for statistical analysis. If ANOVA was statistically significant (P ≤ 0.05), LSD test (parametric method) was used for comparative analysis. If the variance was heterogeneous (P ≤ 0.05), Kruskal-Wallis test was used. If the Kruskal-Wallis test was statistically significant (P ≤ 0.05), Dunnett's test (nonparametric method) was used for comparative analysis.

psoriasis model mice = assay: Psoriasis experiment (imiquimod model): skin lesion (PASI) score; format: in vivo; details: compared with the model group
Protocol: Positive control drug: Fluticasone Propionate Cream (specification: 0.05% × 15 g, Zhejiang Xianju Pharmaceutical Co. Ltd., Lot No. 211106), stored at room temperature protected from light until use.
Adult mice were selected, and the skin of 2 cm × 3 cm on the back of mice was locally depilated. The mice in the model group and drug administration group were applied with 62.5 mg of 5% imiquimod cream on their back for modeling, while the mice in the blank control group were applied with medical petroleum jelly on their back daily. The above procedures were performed once a day for 7 consecutive days.
The mice in the drug administration group were applied with the corresponding drugs on their backs daily at a dose of 0.2 g per mouse, while the blank control group and the model group were only applied with 0.2 g of the test sample drug matrix. One hour after drug administration, the drugs were wiped off with sterile cotton swabs, followed by the application of imiquimod. The above procedures were performed once a day for 7 consecutive days.
Referring to the clinical Psoriasis Area and Severity Index (PASI) scoring criteria, erythema, scaling, and thickness at the skin lesion sites were evaluated on a 0-4 scale on day 8 of modeling, and the total score was obtained by summing the three items.
• (1) Erythema: a score of 0 points indicates no erythema, a score of 1 point indicates erythema appearing light red, a score of 2 points indicates erythema appearing red, a score of 3 points indicates erythema appearing dark red, and a score of 4 points indicates erythema appearing extremely deep red; • (2) Scaling: a score of 0 points indicates no scaling on the surface, a score of 1 point indicates partial skin lesions covered with scaling, a score of 2 points indicates most skin lesions covered with scaling, a score of 3 points indicates almost all skin lesions covered with scaling in layers, and a score of 4 points indicates all skin lesions covered with scaling; • (3) Thickness: a score of 0 points indicates skin lesions flush with normal skin, a score of 1 point indicates skin lesions slightly elevated above normal skin surface, a score of 2 points indicates moderate elevation of skin lesions, a score of 3 points indicates thickened skin lesions with obvious elevation, and a score of 4 points indicates highly thickened skin lesions with prominent elevation.
Statistical analysis was performed using SPSS software, and the results were expressed as mean ± standard deviation. One-way ANOVA was used for intergroup comparisons. For data with homogeneous variance, the LSD test was used; for data with heterogeneous variance, the Dunnett-t test was used. A value of P < 0.05 was considered statistically significant.

[3] = test system: intraocular pressure of guinea pigs; assay: Adverse reactions of continuous ocular administration: intraocular pressure; format: in vivo
Protocol: Pharmacological Example 9: Experiment on Adverse Reactions of Continuous Ocular Administration in Guinea Pigs
Test samples: Compounds 17 and 23 were prepared as 5 mg/5 mL ophthalmic suspensions with reference to the formulation of Fluorometholone Eye Drops, and stored at room temperature protected from light until use.
Positive control drug: Fluorometholone Eye Drops (specification: 5 mL/5 mg; Santen Pharmaceutical (CHINA) Co., Ltd.; Lot No.: 1FM6545), Loteprednol Etabonate Eye Drops (specification 0.5% (5 mg/mL); Shandong Bausch & Lomb Freda Pharmaceutical Co., Ltd; Lot No. 386521), stored at room temperature protected from light until use.
Animals: 50 guinea pigs, conventional grade, with an equal number of males and females, weighing 300-350 g..
Animal grouping: After 5 days of adaptive feeding, the guinea pigs were randomly divided into 5 groups based on body weight. Group 1 was the blank control group, and 50 µL of normal saline was dropped into the eyes (bilateral) of the guinea pigs. Groups 2 to 5 were the fluorometholone group, loteprednol group, compound 17 group, and compound 23 group, respectively, and the corresponding drugs were dropped into the eyes (bilateral) of the guinea pigs. Table 19. Animal grouping and drug administration dosages for the experiment on adverse reactions of continuous ocular administration in guinea pigs
Intraocular pressure measurement time: The intraocular pressure of animals in each group was measured before administration and on days 7, 14, 21, and 28 post-administration.

epidermal layer in rats = assay: Adverse reactions of continuous dermal administration: thickness of the epidermal layer (H&E sections); format: in vivo, SD rats; details: compared with the blank control group
Source text: Pharmacological Example 10: Experiment on Adverse Reactions of Continuous Dermal Administration in Rats
Animals: SD rats, SPF grade, with an equal number of males and females, weighing 230-250 g.
Animal grouping: After adaptive feeding, the rats were randomly divided into 4 groups. […] One day before administration, the backs of rats were shaved at an area of 5 cm × 6 cm. […] The rats in the blank control group were applied with the blank matrix of corresponding mass on their backs, twice a day for a consecutive week. Table 21. Animal grouping and drug administration dosages for the experiment on adverse reactions of continuous dermal administration in rats
To examine the effects of continuous administration of the test samples on the epidermal layer, the back skin tissues were stained with hematoxylin and eosin (H&E) (magnification ×40), and the thickness of the epidermal layer was quantitatively measured based on the H&E-stained sections.

Structure (SMILES) | stability in animal lung tissue homogenate, skin tissue homogenate, and aqueous humor [1] | Tear film break-up time (s) D3 ([2]; D3, 1 mg/mL, 50 µL/eye, 3 times a day for 14 days) | Tear film break-up time (s) D7 ([2]; D7, 1 mg/mL, 50 µL/eye, 3 times a day for 14 days) | Tear film break-up time (s) D15 ([2]; D15, 1 mg/mL, 50 µL/eye, 3 times a day for 14 days) | tear film break-up time [2] | PASI scores (psoriasis model mice) | intraocular pressure after continuous ocular administration [3] | thickness of the epidermal layer after continuous dermal administration (epidermal layer in rats)
C[C@]12C=CC(=O)C=C1CC[C@H]1[C@@H]3C[C@H]4OC(c5ccc(CSC6COC(=O)C6)cc5Cl)O[C@@]4(C(=O)CO)[C@@]3(C)C[C@H](O)[C@@]12F (stereo partly drawn) [Compound 20, (6aS,6bR,7S,8aS,8bS,11aR,12aS,12bS)-10-(2-Chloro-4-(((5-oxotetrahydrofuran-3-yl)thio)methyl)phenyl)-6b-fluoro-7-hydroxy-8b-(2-hydroxyacetyl)-6a,8a-dimethyl-1,2,6a,6b,7,8,8a,8b,11a,12,12a, 12b-dodecahydro-4H-naphtho[2',1':4,5]indeno[1,2-d][1,3]dioxol-4-one] | relatively stable | 37.00 ± 13.36 s | 48.00 ± 9.94 s | 48.28 ± 8.21 s | significantly increased the tear film break-up time on day 15 | significantly decreased PASI scores on day 7 | no abnormal intraocular pressure observed | no significant changes in the thickness of the epidermal layer observed
C[C@]12C=CC(=O)C=C1CC[C@H]1[C@@H]3C[C@H]4OC(c5ccc(CSC6CCOC6=O)cn5)O[C@@]4(C(=O)CO)[C@@]3(C)C[C@H](O)[C@@]12Cl (stereo partly drawn) [Compound 51, (6aS,6bR,7S,8aS,8bS,11aR,12aS,12bS)-6b-Chloro-7-hydroxy-8b-(2-hydroxyacetyl)-6a,8a-dimethyl-10-(5-(((2-oxotetrahydrofuran-3-yl)thio)methyl)pyridin-2-yl)-1,2,6a,6b,7,8,8a,8b,11a,12,12a,12 b-dodecahydro-4H-naphtho[2',1':4,5]indeno[1,2-d][1,3]dioxol-4-one] | relatively stable | – | – | – | significantly increased the tear film break-up time | significantly decreased PASI scores on day 7 | no abnormal intraocular pressure observed | no significant changes in the thickness of the epidermal layer observed
C[C@]12C=CC(=O)C=C1CC[C@H]1[C@@H]3C[C@H]4OC(c5ccc(CNC6COC(=O)C6)cc5)O[C@@]4(C(=O)CO)[C@@]3(C)C[C@H](O)[C@@]12F (stereo partly drawn) [Compound 21, (6aS,6bR,7S,8aS,8bS,11aR,12aS,12bS)-6b-Fluoro-7-hydroxy-8b-(2-hydroxyacetyl)-6a,8a-dimethyl-10-(4-(((5-oxotetrahydrofuran-3-yl)amino)methyl)phenyl)-1,2,6a,6b,7,8,8a,8b,11a,12,12a,12b-dodecahydro-4H-naphtho[2',1':4,5]indeno[1,2-d][1,3]dioxol-4-one] | relatively stable | – | – | – | significantly increased the tear film break-up time | significantly decreased PASI scores on day 7 | no abnormal intraocular pressure observed | no significant changes in the thickness of the epidermal layer observed
C[C@]12C=CC(=O)C=C1CC[C@H]1[C@@H]3C[C@H]4OC(c5ccc(CSC6COC(=O)C6)cc5)O[C@@]4(C(=O)CO)[C@@]3(C)C[C@H](O)[C@@]12Cl (stereo partly drawn) [Compound 26, (6aS,6bR,7S,8aS,8bS,11aR,12aS,12bS)-6b-Chloro-7-hydroxy-8b-(2-hydroxyacetyl)-6a,8a-dimethyl-10-(4-(((5-oxotetrahydrofuran-3-yl)thio)methyl)phenyl)-1,2,6a,6b,7,8,8a,8b,11a,12,12a,12b-do decahydro-4H-naphtho[2',1':4,5]indeno[1,2-d][1,3]dioxol-4-one] | relatively stable | – | – | – | significantly increased the tear film break-up time | significantly decreased PASI scores on day 7 | no abnormal intraocular pressure observed | no significant changes in the thickness of the epidermal layer observed
C[C@]12C=CC(=O)C=C1CC[C@H]1[C@@H]3C[C@H]4OC(c5ccc(CSC6CCOC6=O)nc5)O[C@@]4(C(=O)CO)[C@@]3(C)C[C@H](O)[C@@]12Cl (stereo partly drawn) [Compound 48, (6aS,6bR,7S,8aS,8bS,11aR,12aS,12bS)-6b-Chloro-7-hydroxy-8b-(2-hydroxyacetyl)-6a,8a-dimethyl-10-(6-(((2-oxotetrahydrofuran-3-yl)thio)methyl)pyridin-3-yl)-1,2,6a,6b,7,8,8a,8b,11a,12,12a,12 b-dodecahydro-4H-naphtho[2',1':4,5]indeno[1,2-d][1,3]dioxol-4-one] | relatively stable | – | – | – | significantly increased the tear film break-up time | significantly decreased PASI scores on day 7 | no abnormal intraocular pressure observed | no significant changes in the thickness of the epidermal layer observed
C[C@]12C=CC(=O)C=C1[C@@H](F)C[C@H]1[C@@H]3C[C@H]4OC(c5ccc(CSC6CCOC6=O)cc5)O[C@@]4(C(=O)OCC#N)[C@@]3(C)C[C@H](O)[C@@]12F (stereo partly drawn) [Compound 37, Cyanomethyl (2S,6aS,6bR,7S,8aS,8bS,11aR,12aS,12bS)-2,6b-difluoro-7-hydroxy-6a,8a-dimethyl-4-oxo-10-(4-( ((2-oxotetrahydrofuran-3-yl)thio)methyl)phenyl)-1,2,4,6a,6b,7,8,8a,11a,12,12a,12b-dodecahydro-8bH-naphtho[2',1':4,5]indeno[1,2-d][1,3]dioxole-8b-carboxylate] | relatively stable | – | – | – | significantly increased the tear film break-up time | significantly decreased PASI scores on day 7 | no abnormal intraocular pressure observed | no significant changes in the thickness of the epidermal layer observed
C[C@]12C=CC(=O)C=C1[C@@H](F)C[C@H]1[C@@H]3C[C@H]4OC(c5ccc(CSC6CCOC6=O)nc5)O[C@@]4(C(=O)CO)[C@@]3(C)C[C@H](O)[C@@]12F (stereo partly drawn) [Compound 46, (25,6aS,6bR,78,8a8,8bS,11aR,12a8,12b8S)-2,6b-Difluoro-7-hydroxy-8b-(2-hydroxyacetyl)-6a,8a-dimethyl-10-(6-(((2-oxotetrahydrofuran-3-yl)thio)methyl)pyridin-3-yl)-1,2,6a,6b,7,8,8a,8b,11a,12, 12a,12b-dodecahydro-4H-naphtho[2',1':4,5]indeno[1,2-d][1,3]dioxol-4-one] | relatively stable | – | – | – | significantly increased the tear film break-up time | significantly decreased PASI scores on day 7 | no abnormal intraocular pressure observed | no significant changes in the thickness of the epidermal layer observed
